One data set has as its target human PDE10A2 (Homo sapiens (Human), UniProt Q9Y233). Kind of data set: PDE10 fluorescence polarization (IMAP FP) inhibition assay. The class given is biochemical. The following applies: FAM-labeled cAMP 50 nM, room temperature, read-out: PDE10a Ki. The procedure, abridged:
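Cytoplasmic lysate of AD293 cells transiently expressing human PDE10A2, incubated 30 minutes at room temperature with 50 nM FAM-labeled cAMP in Tris pH 7.2 with MgCl2. Read by IMAP fluorescence polarization; 0% inhibition set by 1% DMSO, 100% by a reference PDE10 inhibitor.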

One may read the Ki as the equilibrium dissociation constant of an inhibitor or competing ligand from its target. One may read the melting point as the temperature of the solid-liquid transition.

Chain of human PDE10A2 (Q9Y233 267-1055): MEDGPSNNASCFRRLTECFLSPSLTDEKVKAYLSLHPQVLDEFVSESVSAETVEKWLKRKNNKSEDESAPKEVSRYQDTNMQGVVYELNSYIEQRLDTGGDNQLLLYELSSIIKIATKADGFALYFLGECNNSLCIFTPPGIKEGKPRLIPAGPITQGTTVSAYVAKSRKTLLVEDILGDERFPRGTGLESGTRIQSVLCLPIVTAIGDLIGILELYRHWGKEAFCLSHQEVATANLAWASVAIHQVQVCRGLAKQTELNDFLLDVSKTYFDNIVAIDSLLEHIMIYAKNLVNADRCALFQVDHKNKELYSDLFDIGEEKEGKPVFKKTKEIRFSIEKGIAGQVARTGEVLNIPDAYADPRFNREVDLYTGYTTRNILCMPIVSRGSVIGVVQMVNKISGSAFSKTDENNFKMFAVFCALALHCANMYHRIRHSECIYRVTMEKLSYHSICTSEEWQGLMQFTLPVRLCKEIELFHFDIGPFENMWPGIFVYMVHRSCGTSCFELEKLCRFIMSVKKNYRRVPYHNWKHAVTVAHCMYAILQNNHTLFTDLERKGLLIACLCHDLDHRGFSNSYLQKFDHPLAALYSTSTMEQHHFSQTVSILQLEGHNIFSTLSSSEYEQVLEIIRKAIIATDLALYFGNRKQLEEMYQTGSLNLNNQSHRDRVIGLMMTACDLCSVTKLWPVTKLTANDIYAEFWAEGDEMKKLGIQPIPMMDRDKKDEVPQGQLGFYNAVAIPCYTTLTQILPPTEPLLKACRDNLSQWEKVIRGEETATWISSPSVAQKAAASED

Turning to `Cc1nc(C)n(-c2cc([C@H]3C[C@@H]3c3nc4ccccc4n3C)nc(N3CCCC3)n2)n1` (relative stereo) [Cpd 116, trans-2-{2-[6-(3,5-dimethyl-1H-1,2,4-triazol-1-yl)-2-pyrrolidin-1-ylpyrimidin-4-yl]cyclopropyl}-1-methyl-1H-benzimidazole], the melting point was 180 to 185 °C. Moreover, the Ki at human PDE10A2 amounted to 1.2 nM.
As for `Cc1nc(C)n(-c2cc([C@H]3C[C@@H]3c3nc4ccccc4n3C)nc(N3CCOCC3)n2)n1` (relative stereo) [Cpd 117, trans-2-{2-[6-(3,5-dimethyl-1H-1,2,4-triazol-1-yl)-2-morpholin-4-ylpyrimidin-4-yl]cyclopropyl}-1-methyl-1H-benzimidazole], the melting point is 226 to 228 °C.
`CCOc1nc([C@@H]2C[C@H]2c2nc3ccccc3n2C)cc(-n2nc(C)nc2C)n1` (relative stereo) [Example 14, trans-2-(2-(6-(3,5-dimethyl-1H-1,2,4-triazol-1-yl)-2-ethoxypyrimidin-4-yl)cyclopropyl)-1-methyl-1H-benzo[d]imidazole] displayed a melting point of 82 to 83 °C.
With `Cc1nc(C)n(-c2cc([C@@H]3C[C@H]3c3nc4ccccc4n3C)nc(C#N)n2)n1` (relative stereo) [Example 21, trans-4-(3,5-dimethyl-1H-1,2,4-triazol-1-yl)-6-(2-(1-methyl-1H-benzo[d]imidazol-2-yl)cyclopropyl)pyrimidine-2-carbonitrile], the melting point lay within 229 to 231 °C.
For the compound `Cc1nc(C)n(-c2cc([C@H]3C[C@@H]3c3nc4ccccc4n3C)nc(C(N)=O)n2)n1` (relative stereo) [Cpd 130, trans-4-(3,5-dimethyl-1H-1,2,4-triazol-1-yl)-6-[2-(1-methyl-1H-benzimidazol-2-yl)cyclopropyl]pyrimidine-2-carboxamide], the melting point is 119 to 121 °C. At human PDE10A2, the Ki was 1.6 nM.
On the same counts, the results for `Cc1nc(C)n(-c2cc([C@H]3C[C@@H]3c3nc4ccccc4n3C)nc(N(C)C)n2)n1` (relative stereo) [Cpd 114, trans-4-(3,5-dimethyl-1H-1,2,4-triazol-1-yl)-N,N-dimethyl-6-[2-(1-methyl-1H-benzimidazol-2-yl)cyclopropyl]pyrimidin-2-amine] are 164 to 165 °C and 1.2 nM.
On the same counts, the results for `Cc1nc(C)n(-c2cc([C@H]3C[C@@H]3c3nc4ccccc4n3C)nc(OC(C)C)n2)n1` (relative stereo) [Cpd 113, trans-2-{2-[6-(3,5-dimethyl-1H-1,2,4-triazol-1-yl)-2-(1-methylethoxy)pyrimidin-4-yl]cyclopropyl}-1-methyl-1H-benzimidazole] are 133 to 135 °C and 0.62 nM.
The compound `CNc1nc([C@H]2C[C@@H]2c2nc3ccccc3n2C)cc(-n2nc(C)nc2C)n1` (relative stereo) [Example 3, trans-4-(3,5-dimethyl-1H-1,2,4-triazol-1-yl)-N-methyl-6-(2-(1-methyl-1H-benzo[d]imidazol-2-yl)cyclopropyl)pyrimidin-2-amine] showed a melting point of 212 to 214 °C.
As for `Cc1nc(C)n(-c2cc([C@@H]3C[C@H]3c3nc4ccccc4n3C)nc(N3CC[C@@H](F)C3)n2)n1` [Cpd 134, 2-((1R,2R)-2-(6-(3,5-dimethyl-1H-1,2,4-triazol-1-yl)-2-((R)-3-fluoropyrrolidin-1-yl)pyrimidin-4-yl)cyclopropyl)-1-methyl-1H-benzo[d]imidazole], the Ki on human PDE10A2 amounted to 0.58 nM.
The same measure, in the same setting: the same measure for `Cc1nc(C)n(-c2cc([C@H]3C[C@@H]3c3nc4ccccc4n3C)nc(N)n2)n1` (relative stereo) [Cpd 123, trans-4-(3,5-dimethyl-1H-1,2,4-triazol-1-yl)-6-[2-(1-methyl-1H-benzimidazol-2-yl)cyclopropyl]pyrimidin-2-amine]: 4.2 nM; for `Cc1nc(C2CC2c2nc3ccccc3n2C)cc(-n2nc(C)nc2C(C)C)n1` (stereo not drawn) [Cpd 56, 2-(2-(6-(5-isopropyl-3-methyl-1H-1,2,4-triazol-1-yl)-2-methylpyrimidin-4-yl)cyclopropyl)-1-methyl-1H-benzo[d]imidazole]: 1.7 nM.
